In general, Ki refers to a measure of affinity in units of concentration, obtained from inhibition or displacement.

This is an account of results in US20260193293A1, “PEPTIDES CAPABLE OF INHIBITING PROTEIN-PROTEIN INTERACTIONS AT GABAB1A SUBUNIT AND USES THEREOF” (UNIVERSITY OF COPENHAGEN, priority 2022, published 2026).

In the test the target is Sushi domains (SD1/2) protein. The test is described as follows: Fluorescence polarization (FP) competition assay with AJAP-1probe, calculated Ki. The settings on record: read-out: Ki (nM) mean ± SEM. The class given is binding. The method, boiled down: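 Competition against 25 nM TAMRA-labelled peptide probe binding SD1/2, in PBS pH 7.4 with 1% BSA at rt, read at 530/580 nm. IC50 from sigmoidal dose-response fits, at least triplicate; Ki calculated from IC50 using probe Kd from saturation binding.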

The mark [1] stands for this setting: Table 8, Ala-, D-amino acids and N-methylation scans of AJAP-1WT.

Where two headings read alike, the source gives them in different places. Non-standard residues stand in square brackets, D forms with d. Residues, ends and D or L forms follow the SMILES beside them. NMeE = CN[C@@H](CCC(=O)O)C(=O)O; Sar = CNCC(=O)O

In the case of `CC[C@H](C)[C@H](NC(=O)[C@H](Cc1c[nH]c2ccccc12)NC(=O)[C@H](CC(=O)O)NC(=O)[C@H](CC(=O)O)NC(=O)[C@H](CC(=O)O)NC(=O)[C@H](CCC(=O)O)NC(=O)[C@H](CCCNC(=N)N)NC(=O)[C@H](CCCNC(=N)N)NC(=O)[C@H](CCCNC(=N)N)NC(=O)[C@H](CCCNC(=N)N)NC(=O)[C@H](CCCNC(=N)N)NC(C)=O)C(=O)N[C@@H](CC(=O)O)C(=O)N[C@@H](Cc1c[nH]c2ccccc12)C(=O)N[C@@H](Cc1ccc(O)cc1)C(=O)N[C@@H](CC(=O)O)C(=O)N[C@@H](CO)C(=O)N[C@@H](CC(=O)O)C(=O)N[C@@H](CC(=O)O)C(=O)N[C@@H](CC(=O)O)C(N)=O` (Ac-RRRRREDDDWIDWYDSDDD-NH2), for the setting “Table 14, CPPs tagged peptides”, the Ki is 39.5 ± 2 nM.
`CC(=O)N[C@@H](C)C(=O)N[C@@H](CC(=O)O)C(=O)N[C@@H](C)C(=O)N[C@@H](CCC(=O)O)C(=O)N[C@@H](CCC(=O)O)C(=O)N[C@@H](CC(=O)O)C(=O)N[C@@H](CC(=O)O)C(=O)N[C@@H](CO)C(=O)N[C@@H](CC(=O)O)C(=O)N[C@H](C(=O)N[C@@H](Cc1c[nH]c2ccccc12)C(=O)N[C@@H](Cc1c[nH]c2ccccc12)C(=O)NCC(=O)NCC(=O)N[C@@H](C)C(N)=O)C(C)C` (Ac-ADAEEDDSDVWWGGA-NH2): the Ki (Table 3, SPOT hit validation and previously reported peptides) was 1530 ± 46 nM.
In the case of `CC(=O)N[C@@H](C)C(=O)N[C@@H](CC(=O)O)C(=O)N[C@@H](CC(=O)O)C(=O)N[C@@H](CO)C(=O)N[C@@H](CC(=O)O)C(=O)N[C@H](C(=O)N[C@@H](Cc1c[nH]c2ccccc12)C(=O)N[C@@H](Cc1c[nH]c2ccccc12)C(=O)NCC(=O)NCC(=O)N[C@@H](C)C(=O)N[C@@H](CC(=O)O)C(=O)N[C@H](C(=O)N[C@@H](CC(=O)O)C(N)=O)[C@@H](C)O)C(C)C` (Ac-ADDSDVWWGGADTD-NH2), the Ki (Table 7, Ala-, D-amino acids and N-methylation scans of APPWT) was 803 ± 5 nM.
For the compound `CC[C@H](C)[C@H](NC(=O)[C@H](Cc1ccccc1)NC(=O)[C@H](CCC(=O)O)NC(=O)[C@@H](NC(=O)[C@H](CCC(=O)O)NC(C)=O)[C@@H](C)O)C(=O)N[C@@H](C)C(=O)N[C@@H](Cc1c[nH]c2ccccc12)C(=O)NCC(=O)N1CCC[C@H]1C(=O)N[C@H](C(=O)N[C@@H](CCCNC(=N)N)C(=O)N[C@@H](CC(=O)O)C(=O)N[C@@H](CCC(=O)O)C(=O)N[C@@H](CC(=O)O)C(N)=O)[C@@H](C)O` [ETEFIAWGPTRDED] (Ac-ETEFIAWGPTRDED-NH2), the Ki (Table 11, deep mutational scanning validation variants of AJAP-1WT) is 32 ± 1 nM.
As to `CC[C@H](C)[C@H](NC(=O)[C@H](C)NC(=O)[C@H](Cc1c[nH]c2ccccc12)NC(=O)[C@@H]1CCCN1C(=O)[C@H](Cc1ccc(O)cc1)NC(=O)[C@H](CCC(N)=O)NC(=O)[C@H](CO)NC(C)=O)C(=O)N[C@H](C(=O)N[C@@H](Cc1c[nH]c2ccccc12)C(=O)NCC(=O)N1CCC[C@H]1C(=O)N[C@H](C(=O)N[C@H](C(=O)N[C@@H](CO)C(=O)N[C@@H](CCCNC(=N)N)C(=O)N[C@@H](CCC(=O)O)C(=O)N[C@@H](CC(=O)O)C(=O)NCC(N)=O)C(C)C)[C@@H](C)O)C(C)C` (Ac-SQYPWAIVWGPTVSREDG-NH2), the Ki (Table 6, elongation and truncation scan of PIANP binding epitope) was 762 ± 13 nM.
In the case of `CC[C@H](C)[C@H](NC(=O)[C@H](Cc1ccccc1)NC(=O)[C@H](CCC(=O)O)N(C)C(=O)[C@@H](NC(=O)[C@H](CCC(=O)O)NC(C)=O)[C@@H](C)O)C(=O)N[C@@H](C)C(=O)N[C@@H](Cc1c[nH]c2ccccc12)C(=O)NCC(=O)N1CCC[C@H]1C(=O)N[C@H](C(=O)NCC(=O)N[C@@H](CC(=O)O)C(=O)N[C@@H](CCC(=O)O)C(=O)N[C@@H](CC(=O)O)C(N)=O)[C@@H](C)O` [ET(N-Me-E)FIAWGPTGDED] (Ac-ET[NMeE]FIAWGPTGDED-NH2), the inhibition constant Ki under setting [1] is 159 ± 3 nM.
Same read-out and setting: to `CC[C@H](C)[C@H](NC(=O)[C@H](Cc1ccccc1)NC(=O)[C@H](CCC(=O)O)NC(=O)[C@@H](NC(=O)[C@H](CCC(=O)O)NC(C)=O)[C@@H](C)O)C(=O)N[C@@H](C)C(=O)N[C@@H](Cc1c[nH]c2ccccc12)C(=O)NCC(=O)N1CCC[C@H]1C(=O)N[C@H](C(=O)N(C)CC(=O)N[C@@H](CC(=O)O)C(=O)N[C@@H](CCC(=O)O)C(=O)N[C@@H](CC(=O)O)C(N)=O)[C@@H](C)O` (Ac-ETEFIAWGPT[Sar]DED-NH2) belongs 132 ± 5 nM.
